We go through 10 compounds from US12365687B2 (Hoffmann-La Roche Inc., priority 2021, dated 2025).

Experiment [1] has as its target human GABAA α5β2γ1 receptor (Homo sapiens (Human), UniProt P31644+Q8N1C3). The experiment is described as follows: Radioligand binding assay for γ1-containing GABAA subtypes, [3H]RO7239181 competition (α5β2γ1).
For experiment [2], the target named is human GABAA α2β2γ1 receptor (Homo sapiens (Human), UniProt P47869+Q8N1C3). The experiment in a line: Radioligand binding assay for γ1-containing GABAA subtypes, [3H]RO7239181 competition (α2β2γ1).
Experiment [3] concerns the target human GABAA α1β2γ1 receptor (Homo sapiens (Human), UniProt P14867+Q8N1C3). The experiment in a line: Radioligand binding assay for γ1-containing GABAA subtypes, [3H]RO7239181 competition (α1β2γ1). On the procedure: The affinity of compounds at GABAA γ1 subunit-containing receptors was measured by competition for [^3H]RO7239181 (67.3 Ci/mmol; Roche) binding to membranes from HEK293F cells (ThermoFisher R79007) expressing human (transiently transfected) receptors of composition α5β2γ1, α2β2γ1, α1β2γ1.
Harvested pellets from HEK293F cells expressing the different GABAA receptor subtypes were resuspended in Mannitol Buffer pH 7.2-7.4 (Mannitol 0.29 M, Triethylamine 10 mM, Acetic acid 10 mM, EDTA 1 mM plus protease inhibitors (20 tablets Complete, Roche Diagnostics Cat. No. 05 056 489 001 per liter)), washed two times and then resuspended at 1:10 to 1:15 dilution in the same buffer. Cell disruption was performed by stirring the suspension in a Parr vessel #4637 at 435 psi for 15 minutes, and then the suspensions were centrifuged at 1000×g for 15 minutes at 4° C. (Beckman Avanti J-HC; rotor JS-4.2). The supernatant (S1) was transferred in a 2 l Schott flask and the pellet (P1) was resuspended with Mannitol Buffer up to 175 ml. The resuspended pellet was transferred into a 250 ml Corning centrifugal beaker and centrifuged at 1500×g for 10 minutes at 4° C. (Beckman Avanti J-HC; rotor JS-4.2). The supernatant (S1) was then transferred in the 2 l Schott flask and the pellet was discarded. The supernatants (S1) were centrifuged in 500 ml Beckman polypropylene centrifugal beaker at 15′000×g for 30 minutes at 4° C. (Beckman Avanti J-20 XP; rotor JLA-10.500). The pellet (P2) was resuspended with Mannitol Buffer 1:1 and frozen at −80° C. The supernatant (S2) was centrifuged in 100 ml Beckman polypropylene centrifugal tubes at 48000×g for 50 minutes at 4° C. (Beckman Avanti J-20 XP; rotor JA-18). The supernatant (S3) was discarded and the pellet (P3) was resuspended with 1:1 Mannitol Buffer. The P2 and P3 protein concentration was determined with the BIORAD Standard assay method with bovine serum albumin as standard and measured on the NANO-Drop 1000. The membrane suspension was aliquots (500 μl per tube) and stored at −80° C. until required.
Membrane homogenates were resuspended and polytronised (Polytron PT1200E Kinematica AG) in Potassium Phosphate 10 mM, KCl 100 mM binding buffer at pH 7.4 to a final assay concentration determined with a previous experiment.
Assays were incubated to equilibrium for 1 hour at 4° C. and then, membranes were filtered onto unifilter (96-well white microplate with bonded GF/C filters preincubated 20-50 minutes in 0.3% Polyethylenimine) with a Filtermate 196 harvester (Packard BioScience) and washed 4 times with cold Potassium Phosphate 10 mM pH 7.4, KCl 100 mM binding buffer. After anhydrousing, filter-retained radioactivity was detected by liquid scintillation counting. Ki values were calculated using Excel-Fit (Microsoft) and are the means of two determinations.

Experiment [4] deals with human GABAA α1β3γ2 receptor (Homo sapiens (Human), UniProt P14867+P18507). The experiment is described as follows: Radioligand binding assay for γ2-containing GABAA subtypes, [3H]Flumazenil competition (α1β3γ2). The settings on record: for γ2/γ1 Selectivity Ratio: Ki α1β3γ2 (nM)/Ki α2β2γ1 (nM); for LogSel: Log[Ki α1β3γ2 (nM)/Ki α2β2γ1 (nM)].
Experiment [5] has as its target α2β2γ1 GABAA receptor subtype (Homo sapiens (Human), UniProt P47869+Q8N1C3). The experiment in a line: Two-electrode voltage clamp electrophysiology in Xenopus oocytes expressing GABAA receptors (modulation of GABA EC20 current). In kind it is cell-based. As to conditions: for Efficacy (GABA)%: % modulation of GABA EC20 = 100*(Fold increase-1), α2β2γ1 oocytes, compound at approx. 30-fold Ki; for Fold increase h-GABA-A α2β2γ1 oocyte @ 30-fold Ki: Xenopus oocytes expressing α2β2γ1, compound at approx. 30-fold its Ki α2β2γ1, GABA EC20 current. Summed up: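 Each concentration was tested on ≥3 oocytes held at −80 mV at room temperature, recorded 3-5 days post-injection. A control and a test response to EC20 GABA (1.5 min each) were superimposed and their point-by-point ratio taken. Peak ratio reported as % modulation of GABA EC20 = 100×(fold increase−1).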
For orientation: Two-electrode voltage clamp holds a large cell at a set potential and records current.

The mark [6] stands for this setting: Ki h-GABAA α2β2γ1, [3H]RO7239181 competition binding, human GABAA α2β2γ1.
Setting [7] is: Ki h-GABAA α2β2γ1, displacement of [3H]RO7239181, membranes of HEK293F cells expressing human receptors, means of two determinations.

The structures appear in SMILES notation. pKi: −log10 of the molar value.

As usually defined, the pKi is −log10 of the Ki, conventionally taken in molar units. High values mean a low Ki, low ones a high Ki. With `COC1CN(C(=O)c2cn3c(n2)CN=C(c2ccccc2F)c2c-3ccc(Cl)c2Cl)C1` [Example 1, (7,8-dichloro-6-(2-fluorophenyl)-4H-benzo[f]imidazo[1,2-a][1,4]diazepin-2-yl)(3-methoxyazetidin-1-yl)methanone], the pKi in experiment [1] was 8.50; in experiment [2] (setting [6]), 7.60; in experiment [2] (setting [7]), 7.60; in experiment [3], 7.45; in experiment [4], 6.20. In addition, the “γ2/γ1 Selectivity Ratio” value in experiment [4] is listed as 25.5. The compound also had a LogSel in experiment [4] of 1.41. The “Efficacy (GABA)%” value in experiment [5] is given as 77%. For the same compound, the “Fold increase h-GABA-A α2β2γ1 oocyte @ 30-fold Ki” value in experiment [5] came to 1.77.

Consider `C[C@@H]1N=C(c2c(F)cccc2F)c2c(ccc(Cl)c2Cl)-n2nc(C(=O)N3CCC3)nc21` [Example 14, azetidin-1-yl-[(4S)-7,8-dichloro-6-(2,6-difluorophenyl)-4-methyl-4H-[1,2,4]triazolo[1,5-a][1,4]benzodiazepin-2-yl]methanone], for which the pKi in experiment [1] is 8.95; in experiment [2] (setting [6]), 8.15; in experiment [2] (setting [7]), 8.15; in experiment [3] it was 8.07; in experiment [4], 6.11. Moreover, the “γ2/γ1 Selectivity Ratio” value in experiment [4] was found to be 108.2. The same compound displayed a LogSel in experiment [4] of 2.03. Moreover, the “Efficacy (GABA)%” value in experiment [5] came to 57%. Besides, the “Fold increase h-GABA-A α2β2γ1 oocyte @ 30-fold Ki” value in experiment [5] was 1.57.

`COC1CN(C(=O)c2nc3n(n2)-c2ccc(Cl)c(Cl)c2C(c2c(F)cccc2F)=N[C@H]3C)C1` [Example 16, [(4S)-7,8-dichloro-6-(2,6-difluorophenyl)-4-methyl-4H-[1,2,4]triazolo[1,5-a][1,4]benzodiazepin-2-yl]-(3-methoxyazetidin-1-yl)methanone]: the pKi in experiment [1] was 8.92; in experiment [2] (setting [6]), 8.28; in experiment [2] (setting [7]), 8.28; in experiment [3], 8.04; in experiment [4], 6.24. Further, the “γ2/γ1 Selectivity Ratio” value in experiment [4] was 109.6. Also, in experiment [4], the LogSel was 2.04. Also, the “Efficacy (GABA)%” value in experiment [5] stood at 52%. Further, in experiment [5], the “Fold increase h-GABA-A α2β2γ1 oocyte @ 30-fold Ki” value turned out to be 1.52.

`Cc1nc2n(n1)-c1ccc(Cl)c(Cl)c1C(c1c(F)cccc1F)=N[C@H]2C` [Example 21, (4S)-7,8-dichloro-6-(2,6-difluorophenyl)-2,4-dimethyl-4H-[1,2,4]triazolo[1,5-a][1,4]benzodiazepine]: the pKi was 9.16 in experiment [1]; 8.36 in experiment [2] (setting [6]); 8.35 in experiment [2] (setting [7]); 8.08 in experiment [3]; 6.61 in experiment [4]. The “γ2/γ1 Selectivity Ratio” value in experiment [4] is 55.0. The LogSel in experiment [4] was found to be 1.74. In experiment [5], the “Efficacy (GABA)%” value came out at 67%. Besides, in experiment [5], the “Fold increase h-GABA-A α2β2γ1 oocyte @ 30-fold Ki” value was 1.67.

For the compound `COC1CN(C(=O)c2nc3n(n2)-c2ccc(C(F)(F)F)c(Cl)c2C(c2c(F)cccc2F)=N[C@H]3C)C1` [Example 23], the negative-log Ki (pKi) in experiment [1] was 8.79; in experiment [2] (setting [6]), 7.93; in experiment [2] (setting [7]), 7.93; in experiment [3], 7.54; in experiment [4] it was 5.94. Also, the “γ2/γ1 Selectivity Ratio” value in experiment [4] is 96.8. Besides, in experiment [5], the “Efficacy (GABA)%” value was determined as 63%.

As for `C[C@@H]1N=C(c2c(F)cccc2F)c2c(ccc(C(F)(F)F)c2Cl)-n2nc(C(=O)N3CCC3)nc21` [Example 26, azetidin-1-yl-[(4S)-7-chloro-6-(2,6-difluorophenyl)-4-methyl-8-(trifluoromethyl)-4H-[1,2,4]triazolo[1,5-a][1,4]benzodiazepin-2-yl]methanone], the pKi is 8.61 in experiment [1]; 8.07 in experiment [2] (setting [6]); 8.07 in experiment [2] (setting [7]); 7.42 in experiment [3]; 5.74 in experiment [4]. Besides, in experiment [4], the “γ2/γ1 Selectivity Ratio” value worked out at 213.1. Also, the LogSel in experiment [4] worked out at 2.33. Further, the “Efficacy (GABA)%” value in experiment [5] is reported as 75%. Also, the “Fold increase h-GABA-A α2β2γ1 oocyte @ 30-fold Ki” value in experiment [5] worked out at 1.75.

As for `C[C@@H]1N=C(c2c(F)cccc2F)c2c(ccc(Cl)c2Cl)-n2nc(C(=O)N3CCS(=O)(=O)CC3)nc21` [Example 36, [(4S)-7,8-dichloro-6-(2,6-difluorophenyl)-4-methyl-4H-[1,2,4]triazolo[1,5-a][1,4]benzodiazepin-2-yl]-(1,1-dioxo-1,4-thiazinan-4-yl)methanone], the pKi in experiment [1] was 9.02; in experiment [2] (setting [6]), 8.46; in experiment [2] (setting [7]), 8.46; in experiment [3], 8.08; in experiment [4] it was 6.11. The “γ2/γ1 Selectivity Ratio” value in experiment [4] amounted to 224.7. In experiment [4], this compound came in with a LogSel of 2.35. In addition, the “Efficacy (GABA)%” value in experiment [5] was 71%. Also, in experiment [5], the “Fold increase h-GABA-A α2β2γ1 oocyte @ 30-fold Ki” value is recorded as 1.71.

Take `C[C@@H]1N=C(c2c(F)cccc2F)c2c(ccc(Cl)c2Cl)-n2nc(C(=O)NCCO)nc21` [Example 54, (4S)-7,8-dichloro-6-(2,6-difluorophenyl)-N-(2-hydroxyethyl)-4-methyl-4H-[1,2,4]triazolo[1,5-a][1,4]benzodiazepine-2-carboxamide]: the pKi in experiment [1] was 9.01; in experiment [2] (setting [6]) it was 8.36; in experiment [2] (setting [7]) it was 8.36; in experiment [3], 7.82; in experiment [4] it was 6.24. Also, the “γ2/γ1 Selectivity Ratio” value in experiment [4] worked out at 132.7. The LogSel in experiment [4] is listed as 2.12. Besides, in experiment [5], the “Efficacy (GABA)%” value turned out to be 80%. For the same compound, the “Fold increase h-GABA-A α2β2γ1 oocyte @ 30-fold Ki” value in experiment [5] amounted to 1.80.

As to `C[C@@H]1N=C(c2c(F)cccc2F)c2c(ccc(C(F)(F)F)c2Cl)-n2nc(C(=O)N3CC(O)C3)nc21` [Example 58, (3-hydroxyazetidin-1-yl)-[(4S)-7-chloro-6-(2,6-difluorophenyl)-4-methyl-8-(trifluoromethyl)-4H-[1,2,4]triazolo[1,5-a][1,4]benzodiazepin-2-yl]methanone], the pKi in experiment [1] was 8.64; in experiment [2] (setting [6]) it was 8.15; in experiment [2] (setting [7]), 8.15; in experiment [3], 7.62; in experiment [4], 5.96. In addition, the “γ2/γ1 Selectivity Ratio” value in experiment [4] was determined as 156.8. This compound came in with a LogSel in experiment [4] of 2.20. Further, in experiment [5], the “Efficacy (GABA)%” value is 112%. In addition, the “Fold increase h-GABA-A α2β2γ1 oocyte @ 30-fold Ki” value in experiment [5] is given as 2.12.

Turning to `C[C@@H]1N=C(c2ncccc2F)c2c(ccc(C(F)(F)F)c2Cl)-n2nc(C(=O)N3CCC3)nc21` [Example 85, azetidin-1-yl-[(4S)-7-chloro-6-(3-fluoro-2-pyridyl)-4-methyl-8-(trifluoromethyl)-4H-[1,2,4]triazolo[1,5-a][1,4]benzodiazepin-2-yl]methanone], the pKi in experiment [1] was 8.07; in experiment [2] (setting [6]) it was 7.22; in experiment [2] (setting [7]), 7.22; in experiment [3] it was 6.65; in experiment [4] it was 5.05. The “γ2/γ1 Selectivity Ratio” value in experiment [4] is reported as 145.5. In addition, the LogSel in experiment [4] is reported as 2.16. The “Efficacy (GABA)%” value in experiment [5] amounted to 140%. For the same compound, in experiment [5], the “Fold increase h-GABA-A α2β2γ1 oocyte @ 30-fold Ki” value worked out at 2.40.
